Reference: ChEMBL document CHEMBL5329155, “Synthesis and pharmacological evaluation of 1,3-diaryl substituted pyrazole based (thio)urea derivatives as potent antimicrobial agents against multi-drug resistant Staphylococcus aureus and Mycobacterium tuberculosis” (RSC Med Chem, 2023)
≈ marks a conversion by molar mass, not a printed value.

What was measured:
[1] = test system: Mycobacterium tuberculosis; assay: Antimycobacterial activity against Mycobacterium tuberculosis H37Rv ATCC 27294 assessed as inhibition of bacterial growth incubated for 18 to 24 hrs by broth dilution method; format: functional
[2] = test system: Staphylococcus aureus; assay: Antibacterial activity against Staphylococcus aureus ATCC 29213 assessed as inhibition of bacterial growth measured for 18 to 24 hrs by broth dilution method; format: functional; settings: time 18-24 hrs

Structure (SMILES) | MIC [1] | MIC [2]
COc1ccc(-c2ccn(-c3ccc(NC(=O)Nc4cccc(F)c4)cc3)n2)cc1OC | 32 µg/mL (≈ 74 µM) | > 64 µg/mL
O=C(Nc1ccc(-n2ccc(-c3ccc(Cl)cc3)n2)cc1)Nc1ccc(Cl)c(Cl)c1 | 8 µg/mL (≈ 17.5 µM) | > 64 µg/mL
Cc1ccc(-c2ccn(-c3ccc(NC(=O)NCc4ccccc4)cc3)n2)cc1 | > 64 µg/mL | > 64 µg/mL
COc1ccc(-c2ccn(-c3ccc(NC(=S)Nc4cccc5ccccc45)cc3)n2)cc1OC | 16 µg/mL (≈ 33.3 µM) | > 64 µg/mL
COc1ccc(-c2ccn(-c3ccc(NC(=O)Nc4cc(Cl)ccc4Cl)cc3)n2)cc1OC | > 64 µg/mL | > 64 µg/mL
COc1cc(-c2ccn(-c3ccc(NC(=O)Nc4ccc(F)cc4F)cc3)n2)cc(OC)c1OC | 8 µg/mL (≈ 16.7 µM) | > 64 µg/mL
O=C(Nc1ccc(-n2ccc(-c3ccc(Cl)cc3Cl)n2)cc1)Nc1ccc(Cl)c(Cl)c1 | > 64 µg/mL | > 64 µg/mL
COc1ccc(-c2ccn(-c3ccc(NC(=O)Nc4c(C)cccc4C)cc3)n2)cc1OC | > 64 µg/mL | > 64 µg/mL
COc1cccc(NC(=S)Nc2ccc(-n3ccc(-c4ccc(OC)c(OC)c4)n3)cc2)c1 | 16 µg/mL (≈ 34.7 µM) | > 64 µg/mL
COc1ccc(-c2cn(-c3ccc(NC(=O)Nc4ccc(F)cc4F)cc3)nn2)cc1OC | 8 µg/mL (≈ 17.7 µM) | > 64 µg/mL
COc1ccc(-c2ccn(-c3ccc(NC(=S)Nc4cc(C(F)(F)F)cc(C(F)(F)F)c4)cc3)n2)cc1OC | 16 µg/mL (≈ 28.2 µM) | 1 µg/mL (≈ 1.77 µM)
O=C(Nc1ccc(-n2ccc(-c3ccc4ccccc4c3)n2)cc1)Nc1ccc(F)cc1F | > 64 µg/mL | > 64 µg/mL
COc1ccc(-c2ccn(-c3ccc(NC(=O)Nc4cccc(Cl)c4)cc3)n2)cc1OC | 16 µg/mL (≈ 35.6 µM) | 2 µg/mL (≈ 4.46 µM)
COc1ccc(-c2ccn(-c3ccc(NC(=O)Nc4ccc(C)c(Cl)c4)cc3)n2)cc1OC | 4 µg/mL (≈ 8.64 µM) | > 64 µg/mL
COc1ccc(-c2ccn(-c3ccc(NC(=S)NCc4ccccc4)cc3)n2)cc1OC | 8 µg/mL (≈ 18 µM) | > 64 µg/mL
COc1ccc(-c2ccn(-c3ccc(NC(=S)Nc4ccc(C)cc4)cc3)n2)cc1OC | 64 µg/mL (≈ 144 µM) | > 64 µg/mL

Structure (SMILES) | MIC [1] | MIC [2]
COc1ccc(-c2ccn(-c3ccc(NC(=S)Nc4ccc(F)cc4)cc3)n2)cc1OC | 2 µg/mL (≈ 4.46 µM) | > 64 µg/mL
O=C(NCc1ccccc1)Nc1ccc(-n2ccc(-c3ccc(Cl)cc3Cl)n2)cc1 | 64 µg/mL (≈ 146 µM) | > 64 µg/mL
COc1ccccc1NC(=O)Nc1ccc(-n2ccc(-c3ccc(OC)c(OC)c3)n2)cc1 | 32 µg/mL (≈ 72 µM) | > 64 µg/mL
O=C(NCc1ccccc1)Nc1ccc(-n2ccc(-c3ccc4ccccc4c3)n2)cc1 | 64 µg/mL (≈ 153 µM) | > 64 µg/mL
O=C(Nc1ccc(-n2ccc(-c3ccc(Cl)cc3)n2)cc1)Nc1ccc(F)cc1F | > 64 µg/mL | > 64 µg/mL
COc1ccc(-c2ccn(-c3ccc(NC(=O)Nc4cccc(Cl)c4Cl)cc3)n2)cc1OC | 16 µg/mL (≈ 33.1 µM) | > 64 µg/mL
Cc1ccc(-c2ccn(-c3ccc(NC(=O)Nc4ccc(Cl)c(Cl)c4)cc3)n2)cc1 | > 64 µg/mL | > 64 µg/mL
COc1ccc(-c2cn(-c3ccc(NC(=O)Nc4ccc(Cl)c(Cl)c4)cc3)nn2)cc1OC | > 64 µg/mL | 4 µg/mL (≈ 8.26 µM)
O=C(Nc1ccc(-n2ccc(-c3ccc(Cl)cc3Cl)n2)cc1)Nc1ccc(F)cc1F | > 64 µg/mL | > 64 µg/mL
COc1ccc(-c2ccn(-c3ccc(NC(=O)Nc4ccc(Cl)cc4Cl)cc3)n2)cc1OC | 16 µg/mL (≈ 33.1 µM) | > 64 µg/mL
COc1ccc(-c2ccn(-c3ccc(NC(=O)Nc4cccc(C(F)(F)F)c4)cc3)n2)cc1OC | 8 µg/mL (≈ 16.6 µM) | > 64 µg/mL
COc1ccc(-c2ccn(-c3ccc(NC(=S)Nc4ccc(C(F)(F)F)cc4)cc3)n2)cc1OC | 2 µg/mL (≈ 4.01 µM) | 2 µg/mL (≈ 4.01 µM)
COc1ccc(NC(=S)Nc2ccc(-n3ccc(-c4ccc(OC)c(OC)c4)n3)cc2)c(OC)c1 | 32 µg/mL (≈ 65.2 µM) | > 64 µg/mL
COc1ccc(-c2ccn(-c3ccc(NC(=O)Nc4ccccc4C)cc3)n2)cc1OC | 16 µg/mL (≈ 37.3 µM) | > 64 µg/mL
COc1ccc(-c2cn(-c3ccc(NC(=O)NCc4ccccc4)cc3)nn2)cc1OC | 16 µg/mL (≈ 37.3 µM) | > 64 µg/mL
